# Reference: patent EP2067861A1, “Animals of the rattus genus wherein msh6 expression is functionally decreased and methods for the generation of specific mutants therefrom” (Koninklijke Nederlandse Akademie van Wetenschappen, priority 2007, dated 2009)
# Several values for one entry are separate records, joined by “and”; a condition that tells them apart may be missing. Equal entries are not always repeated.
# Assays:
# [1] = tested on: Control; conditions: Control 3 x 40 mg/kg ENU, cited from earlier work
# [2] = tested on: wild-type rats; conditions: cited from earlier work
# [3] = tested on: msh6^-/- male rats; assay: Survival of ENU treated msh6^-/- male rats; assay type: in vivo, rat; conditions: for # Surviving founders: 3 x 30 mg/kg bodyweight ENU
# Source text: • Figure 1. Characteristics of the msh6^-/- rat. (A) Genomic organization of the msh6 gene in rats. The arrow marks the position of the ENU-induced mutation that results in a premature stop codon. The sequence trace indicates the T to A […] in a heterozygous rat. (B) Western blot (WB) of testes and cultured rat embryonic fibroblast (CREF) lysates stained with antibodies against human MSH6 (160 kDa). Lysate of human embryonic kidney (HEK) cells was loaded as a positive control. MSH6 protein is completely absent in msh6^-/- testes and CREF. Coomassie brilliant blue staining (CBB) was used as a control for protein loading. • Figure 2. Microsatellite instability in the germ line. (A) A mononucleotide repeat of 20 repetitive subunits (G)20 was analyzed in a cross between a msh6^-/- father and a wild type mother and their msh6^+/- offspring. The red line indicates the size of the most prominent amplification product in both parents. In the DNA sample of the offspring one of the alleles has lost one repetitive subunit. (B) Fragment analysis of a dinucleotide repeat (CA)36 that is polymorphic between the founder animals. […] The orange peaks represent the size marker that was loaded to determine the size of the PCR product. • Figure 3. Survival of the msh6^-/- rats. The time the rats became moribund is recorded. Red line, msh6^-/- rats (n=17); black line, control group (n=100, Source Harlan). • Figure 4. Tumors observed in the msh6^-/- rat. (A) Section of a mediastinal lymphoblastic lymphoma of a msh6^-/- male rat stained with HE. (B) A higher magnification of the lymphoblastic lymphoma. (C) Section of a leiomyosarcoma of the endometrium stained with HE. (D) Section of an endometrial carcinoma stained with HE. (E) A higher magnification of the endometrial carcinoma. (F) A section of a squamous cell carcinoma in the stomach of a msh6^-/- female rat stained with HE. (G) Section of a fibroadenoma of a msh6^-/- male rat stained with HE. (H) Section of a liver with lymphoblastic lymphoma leukemia stained with HE. (I) Section of a testicle containing a Leydig cell tumor stained with HE. • Figure 5. Survival of msh6^-/- male rats after treatment of different concentrations of ENU compared to untreated msh6^-/- male rats. Time points of the last ENU injection and the beginning of the mutation discovery screen are indicated. • Figure 6. ENU-induced target-selected knockout protocol. (A) Msh6^-/- males were mutagenized and crossed with wild-type Wistar females. At two weeks of age tissue samples from the F1 progeny were taken and DNA was isolated. (B) For every DNA samples 768 pre-selected amplicons were PCR amplified and dideoxy sequenced. (C) Sequence traces for the same amplicon of the different animals was aligned, processed with PolyPhred (Nickerson et al, (1997) Nucleic Acids Res 25, 2745-51) and analyzed using in house developed software. (D) ENU-induced de novo mutations were verified by independent PCR amplification and sequencing and pups carrying interesting mutations were weaned. The whole procedure from taking tissue samples to weaning interesting mutants takes 1 week, indicated in the centre of the figure. • Figure 7. ENU-induced mutation spectrum in MSH6 deficient background compared to MMR proficient animals. […] (B) The change of introducing a premature stop codon with ENU-induced MSH6 proficient and deficient mutation spectra. For the calculations the sequences of the 768 representative exon-containing amplicons were used (* indicates significance, p < 0.05).
# All experiments were approved by the Animal Care Committee of the Royal Dutch Academy of Science according to the Dutch legal ethical guidelines. Experiments were designed to minimize the number of required animals and their suffering. Male MSH6 knockout rats (Msh6^1Hubr) of 12 weeks of age were given three weekly intraperitoneal injections of 25, 30 and 35 mg/kg bodyweight ENU. […]
# [4] = tested on: A:T base pairs; conditions: Justice et al. (1999); cited from earlier work
# [5] = 362 pups, 37,27 x 10^6 bases screened
smiles,measurement,setting,value
"CCN(N=O)C(N)=O [ENU, N-ethyl-N-nitrosourea]",# Mutations - nonsense,[1]; [5],0
same,# Mutations - total,[1]; [5],30
same,# Mutations - missense,[1],17
same,# Mutations - non-coding,[1],6
same,# Mutations - silent,[1],7
same,Mutation Frequencies,[1]; highest ENU-induced mutation frequency in rats,8.05 x 10^-7
same,rats fertile,"[2]; 35 mg/kg ENU, earlier studies (Smits and Cuppen 2006)",10/10
same,# Fertile males,"[2]; Control 3 x 40 mg of ENU per kg bodyweight, 10 males injected",6/10 and 6
same,# Surviving founders,[3]; 17 - 19 weeks after last injection,5/5
same,# Surviving founders,[3]; 20 - 22 weeks after last injection,5/5
same,# Surviving founders,[3]; 23 - 25 weeks after last injection,5/5
same,# Surviving founders,[3]; 26 - 29 weeks after last injection,3/5
same,age after which no male was alive,[3]; ENU treated msh6^-/- males,≤ 50 weeks
same,average mean of survival,[3]; ENU treated msh6^-/- males (untreated msh6^-/- rats: median survival 14 months),37 ± 3 weeks
same,average mean of survival,"[3]; ENU treated msh6^-/- males, same value restated in months",~8 months
same,# Surviving founders,"[3]; fertile msh6^-/- males, 14 - 16 weeks after last injection",5/5
same,A:T->C:G transversions,[4],5%
same,A:T->G:C transitions,[4],38%
same,A:T->T:A transversions,[4],44%
same,G:C ->A:T transitions,[4],8%
same,G:C->C:G transversions,[4],3%
same,G:C->T:A transversions,[4],2%
same,missense mutations,[4],about 64%
same,nonsense mutations,[4],~10%
same,splicing errors,[4],~26%
